In article PMC9324262, “Selective CDK9 Inhibition by Natural Compound Toyocamycin in Cancer Cells” (Cancers, 2022):
Values joined by “and” are separate entries in the source; they are usually repeats but may differ in a detail not shown here. Equal entries are not always repeated.

Key:
[1] = biological target: T1, CDK9/Cyclin T1 (Homo sapiens, UniProt P50750); experiment: in vitro kinase assay CDK9/Cyclin T1 (Kinase-Glo Plus luminescence); type: biochemical
T1 construct: purchased BPS Bioscience
T1 sequence (P50750 whole entry): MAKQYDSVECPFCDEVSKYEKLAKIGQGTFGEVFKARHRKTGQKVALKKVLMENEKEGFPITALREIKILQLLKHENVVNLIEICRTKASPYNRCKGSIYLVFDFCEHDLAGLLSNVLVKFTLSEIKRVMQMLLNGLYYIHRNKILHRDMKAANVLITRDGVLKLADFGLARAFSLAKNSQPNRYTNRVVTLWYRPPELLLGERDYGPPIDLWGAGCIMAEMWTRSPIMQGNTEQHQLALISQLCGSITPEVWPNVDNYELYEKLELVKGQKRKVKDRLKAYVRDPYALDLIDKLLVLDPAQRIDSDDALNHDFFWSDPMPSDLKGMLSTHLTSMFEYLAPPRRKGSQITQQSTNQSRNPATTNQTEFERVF
T1 sequence (O60563 whole entry partner): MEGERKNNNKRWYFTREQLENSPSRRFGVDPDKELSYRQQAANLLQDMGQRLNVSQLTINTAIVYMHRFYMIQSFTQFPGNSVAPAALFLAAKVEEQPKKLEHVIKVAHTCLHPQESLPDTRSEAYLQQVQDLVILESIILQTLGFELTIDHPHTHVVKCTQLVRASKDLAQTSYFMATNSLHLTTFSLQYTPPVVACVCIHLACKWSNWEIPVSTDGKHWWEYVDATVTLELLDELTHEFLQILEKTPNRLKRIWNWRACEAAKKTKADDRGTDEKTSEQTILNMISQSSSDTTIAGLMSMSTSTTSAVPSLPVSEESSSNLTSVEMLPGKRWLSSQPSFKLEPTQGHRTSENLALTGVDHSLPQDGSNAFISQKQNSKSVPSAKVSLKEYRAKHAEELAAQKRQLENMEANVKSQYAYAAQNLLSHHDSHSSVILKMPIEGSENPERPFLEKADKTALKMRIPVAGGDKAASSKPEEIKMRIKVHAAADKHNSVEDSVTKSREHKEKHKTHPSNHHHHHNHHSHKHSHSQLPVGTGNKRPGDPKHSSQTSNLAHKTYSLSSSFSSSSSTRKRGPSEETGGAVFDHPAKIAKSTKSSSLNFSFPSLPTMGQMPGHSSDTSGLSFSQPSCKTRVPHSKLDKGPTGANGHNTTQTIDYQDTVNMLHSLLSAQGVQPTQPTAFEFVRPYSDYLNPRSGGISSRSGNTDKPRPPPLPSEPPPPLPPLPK
Experimental: (§1) The in vitro enzymatic assays were conducted at BPS Bioscience. CDK9/Cyclin T1, CDK2/Cyclin 2A, CDK4/Cyclin D3, and CDK6/Cyclin D3 enzymatic activities were tested with an ATP Kinase-Glo Plus Luminescence kinase assay kit (Promega, V6073, Madison, WI, USA), while the CDK7/Cyclin H/MAT1 activities were tested using ADP-Glo Kinase (Promega, V6930). These assays measure kinase activity by quantifying the amount of ATP or ADP remaining in solution following a kinase reaction. The luminescent signal from the assay is correlated to the amount of ATP or ADP present and is inversely correlated to the kinase activity. The compounds were diluted to 10% DMSO and were added to the reaction so that the final concentration of DMSO was 1% in all reactions. All enzymatic reactions were conducted at 30 °C for 60 min. […] After the enzymatic reaction, the luminescence signal was measured using a BioTek Synergy 2 microplate reader (Agilent, Santa Clara, CA, USA). Kinase activity assays were performed in duplicate at each concentration and the percent of kinase activity was calculated as a ratio of luminescence intensities in the absence or in presence of the compounds. […] IC50 values were determined by the concentration causing a half-maximal percent activity (BPS Bioscience, San Diego, CA, USA).

[2] = biological target: T2, CDK2/Cyclin 2A (Homo sapiens, UniProt P24941); experiment: biochemical; settings: 10 µM ATP, 30 °C, 60 min
T2 construct: purchased BPS Bioscience
Experimental: as §1

[3] = biological target: T3, CDK4/Cyclin D3 (Homo sapiens, UniProt P11802); experiment: in vitro kinase assay CDK4/Cyclin D3 (Kinase-Glo Plus); type: biochemical
T3 construct: purchased BPS Bioscience
T3 sequence (P11802 whole entry): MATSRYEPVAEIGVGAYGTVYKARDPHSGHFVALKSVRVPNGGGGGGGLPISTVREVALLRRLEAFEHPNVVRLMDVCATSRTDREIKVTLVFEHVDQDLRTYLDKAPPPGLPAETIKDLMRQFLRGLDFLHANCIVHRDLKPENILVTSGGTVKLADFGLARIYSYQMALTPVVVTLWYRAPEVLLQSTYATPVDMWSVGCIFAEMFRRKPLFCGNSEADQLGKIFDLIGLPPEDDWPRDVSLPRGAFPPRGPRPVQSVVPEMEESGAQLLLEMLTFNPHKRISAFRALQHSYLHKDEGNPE
T3 sequence (P30281 whole entry partner): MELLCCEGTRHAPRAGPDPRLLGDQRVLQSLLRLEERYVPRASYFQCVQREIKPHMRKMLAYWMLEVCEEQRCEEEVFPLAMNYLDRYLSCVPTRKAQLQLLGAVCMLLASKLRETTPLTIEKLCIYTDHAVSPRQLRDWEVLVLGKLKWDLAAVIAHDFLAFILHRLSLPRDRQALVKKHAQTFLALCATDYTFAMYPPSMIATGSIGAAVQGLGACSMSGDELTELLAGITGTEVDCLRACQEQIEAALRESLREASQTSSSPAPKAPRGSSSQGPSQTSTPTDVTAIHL
Experimental: as §1

[4] = tested on: HCT116 SFRP1-GFP colon cancer cells; experiment: GFP reactivation in HCT116 SFRP1-GFP model; type: cell-based, human; settings: dose-response
Experimental: YB5 cells are derived from SW48 cells (human colon cancer cell line), and contain a single insertion of a DNA hypermethylated cytomegalovirus (CMV) promoter driving the green fluorescent protein (GFP) gene, as previously described. YB5 cells are cultured in L-15 medium supplemented with 10% fetal bovine serum and grown in log-phase in 1% CO2 atmosphere. YB5 cells were authenticated by DNA fingerprinting prior to drug screening and validation experiments. GFP expression in YB5 cells is silenced in >99.9% of the cells due to the CMV promoter DNA hypermethylation and repressive chromatin marks around the transcriptional start site. The human HCT116 colon cancer-derived GFP-reporter system, comprising a GFP gene under the control of an endogenously hypermethylated SFRP1 gene promoter, was kindly provided by Dr. Stephen Baylin (Johns Hopkins University). These cells are cultured in McCoy’s 5A medium supplemented with 10% fetal bovine serum and grown in log-phase in 5% CO2 atmosphere at 37 °C. […]
After treatment, YB5 cells were trypsinized for 15 min and resuspended in L-15 media containing propidium iodide (PI) to stain dead cells. GFP expression and PI staining were quantified by a BD LSR II flow cytometer (BD Biosciences, San Jose, CA, USA). A maximum of 10,000 cells was analyzed per well. […]

[5] = tested on: CMV promoter in YB5 cells; experiment: DNA methylation by bisulfite pyrosequencing, CMV promoter; type: cell-based, human; settings: 0.05–50 µM, 72 h
From the text: We analyzed DNA methylation levels on the CMV promoter region and LINE-1 repeated elements (as a marker of global DNA methylation level). After DNA extraction and bisulfite conversion, PCR amplification of regions of interest and pyrosequencing were achieved as previously described.

[6] = tested on: Rb phosphorylation level (T826); experiment: Western blot, Rb and phospho-Rb T826; type: cell-based, human; settings: HCT116, 50–500 nM, 6 h
[7] = tested on: HCT116 cells; experiment: cell cycle analysis by flow cytometry; type: cell-based, human
Experimental: For cell cycle analysis, cells were cultured in T25 flasks, trypsinized, and washed with PBS. Then, 1 × 10^6 cells were fixed in 100% cold ethanol overnight at −20 °C. Cells were then washed with PBS and treated with 100 μg/mL RNase A (Invitrogen, Waltham, MA USA) for 20 min, at 37 °C. DNA was stained with 5 μg/mL propidium iodide (Sigma, St. Louis, MO, USA). The cell cycle was analyzed by flow cytometry using a Guava® easyCyte HT System (Millipore) with GuavaSoft 3.2 software.

[8] = 6 h treatment followed by 18 h without exposure

N#Cc1cn([C@@H]2O[C@H](CO)[C@@H](O)[C@H]2O)c2ncnc(N)c12 [toyocamycin, 7-Deaza-7-cyanoadenosine]
IC50 ([1]; IC50, 10 µM ATP, 30 °C, 60 min): 79 nM and 79.5 nM
IC50 ([1]; IC50, as quoted in docking section): 80 nM
IC50 [2]: 670 nM
IC50 [3]: 15 µM
GFP expression [4]: induced dose-dependent GFP expression
DNA methylation on CMV promoter [5]: no changes in DNA methylation
Rb and its phosphorylated form (T826) [6]: did not change
apoptotic cells [7, 8]: 10%
cell cycle [7, 8]: not significantly impacted
cell cycle ([7]; 24 h treatment, 500–1000 nM): significantly blocked the cell cycle
